Results taken from article PMC4013589, “LXXLL Peptide Converts Transportan 10 to a Potent Inducer of Apoptosis in Breast Cancer Cells” (International Journal of Molecular Sciences, 2014).
Entries after “also recorded” stand apart in the source; their conditions may differ. Where no end group is shown, it is not given here.

What was measured:
[1] = tested on: MCF-7 breast cancer cells; assay: WST-1 viability assay, MCF-7 cells; assay type: cell-based, human; settings: WST-1, 5 μM peptide, treated every 24 h, day 3, 1% FBS without insulin; triplicate
Method: (§1) Figure 1. Effects of SRC-1 bioportides on cancer and primary fibroblast cells. (A) Viability of MCF-7 cells; (B) Viability of FB188 cells. Cells were seeded in 96-well plates at a density of 3000 or 2000 cells/well, respectively, and treated after every 24 h with the indicated peptide concentrations. Viability of both cell types was monitored at day 3 via the WST-1 assay. The values shown represent the mean values of one experiment, carried out in triplicate (mean ± SD). In total, three independent experiments were performed.
(§2) Cytotoxicity of peptides was measured via the WST-1 conversion assay (Roche, Mannheim, Germany). FB188 and MCF-7 cells were seeded in 96-well plates at a density of 2000 or 3000 cells/well, respectively, and allowed to adhere overnight. Subsequently the cells were pre-incubated for two days in medium containing 1% FBS without supplementary insulin and exposed to the indicated concentrations of the respective peptide for up to 3 days. WST-1 conversion was determined by colorimetric analysis at 450 nm. Briefly, WST-1 reagent (1/10 of sample volume) was added directly to the growth medium and incubated at 37 °C for 4 h. The absorbance was determined using a microplate reader (Molecular Devices, Sunnyvale, CA, USA) at 450 nm. Untreated cells were designated a cell survival value of 100%.

[2] = tested on: human primary fibroblasts (FB188 cells); assay: WST-1 viability assay, primary fibroblasts (FB188); assay type: cell-based
Method: as §1, §2

[3] = tested on: HeLa cervical cancer cells; assay: Toxicity to HeLa cells; assay type: cell-based, human; settings: for Toxicity to HeLa cells: data not shown, concentration not given
MCF-7 cells [4] = assay type: cell-based, human; settings: for Effect on survival of MCF-7 cells: propidium iodide viability assay, 5 μM every 24 h for 4 days, 1% FBS without insulin
Method: (§3) Figure 3. Inhibition of cell viability by SRC-1 bioportides and their influence on ERα-mediated gene transactivation. (A) MCF-7 cells; (B) MDA-MB-231 cells. Cells were seeded in 24-well plates at low density and were treated every 24 h for 4 days with 5 μM peptide. Cell proliferation was measured after 1, 3, and 4 days of peptide treatment via a propidium iodide viability assay. […] MCF-7 cells were cultured with 5 μM of the indicated peptides and analyzed on day 2 of treatment. The fold change is the value compared with untreated cells. The values shown represent the mean values of one representative experiment, carried out in triplicate (mean ± SD). In total, three independent experiments were performed.
(§4) Cells were plated at low density in 24-well plates in standard growth medium, as described above. Before peptide treatment, MCF-7 cell growth was impeded by growing cells in 1% FBS containing medium without addition of insulin. At the day of treatment, peptides were added to the growth medium containing 1% FBS to the indicated final concentration. The procedure was repeated every 24 h for 4 days; samples were drawn after 1, 3, and 4 days of treatment and analyzed by cell counting using the propidium iodide viability assay (Nucleocounter, ChemoMetec, Allerød, Denmark) according to manufacturer’s instructions.

MDA-MB-231 cells = assay type: cell-based, human; settings: for Effect on survival of MDA-MB-231 cells: propidium iodide viability assay, 5 μM every 24 h for 4 days, 1% FBS
Method: as §3, §4

pS2 mRNA in MCF-7 cells = assay: Quantitative RT-PCR of ERα target gene pS2, MCF-7; assay type: cell-based, human; settings: MCF-7, 5 μM peptide, day 2, qRT-PCR relative to GAPDH, versus untreated cells
Method: as §3
(§5) For quantitative RT-PCR (qPCR) analysis, MCF-7 cells were treated as described above for the proliferation assay. On day 2, cells were lysed and total RNA was extracted using a commercial RNAqueous Kit (Ambion, Austin, TX, USA). Genomic DNA was removed with DNase I treatment (Ambion) according to the supplier’s protocol. RNA was reverse-transcribed using SuperScript III Reverse Transcriptase (Invitrogen, Carlsbad, CA, USA). Subsequently, qPCR was performed using Platinum SYBR Green (Invitrogen) according to the manufacturer’s protocol. […]

CTSD mRNA in MCF-7 cells = assay: Quantitative RT-PCR of ERα target gene CTSD, MCF-7; assay type: cell-based, human; settings: MCF-7, 5 μM peptide, day 2, qRT-PCR; similar to TP10 or TP10-SRC1_1222–1245 treated cells
Method: as §3, §5

BCL2 mRNA in MCF-7 cells = assay: Quantitative RT-PCR of ERα target gene BCL2, MCF-7; assay type: cell-based, human; settings: MCF-7, 5 μM peptide, day 2, qRT-PCR; similar to TP10 or TP10-SRC1_1222–1245 treated cells
Method: as §3, §5

MCF-7 cells [5] = assay: Annexin V / 7-AAD flow cytometric detection of apoptosis; assay type: cell-based, human; settings: MCF-7, 5 μM peptide, 24 h, 1% FBS without insulin, flow cytometry
Method: Figure 4. Flow cytometric detection of apoptosis by annexin V and 7-amino-actinomycin D (7-AAD) staining. (A) Representative dot plots of 7-AAD versus annexin-V-PE. MCF-7 cells were left untreated (control) or were treated with 5 μM of peptide for 24 h in media supplemented with 1% serum. The lower left quadrant contains the vital (double negative) population; the lower right contains the apoptotic (annexin V^+/7-AAD^−) population; the upper right contains the late apoptotic/necrotic (annexin V^+/7-AAD^+) population; and the upper left contains the pre-necrotic (annexin V^−/7-AAD^+) population; (B) Average percentage of apoptotic and late apoptotic/necrotic cells counted from dot plots taken from one representative experiment, error bars indicate mean ± SD. Data are statistically significant with * p < 0.05, ** p < 0.01. In total, three independent experiments were performed.
Annexin V staining was measured using the PE-annexin-V Apoptosis Detection Kit I (BD Biosciences, San Diego, CA, USA). MCF-7 cells (3 × 10^5) were treated for 24 h with 5 μM peptide in growth medium supplemented with 1% FBS and without insulin. […] Following the addition of 0.4 mL of 1× Binding Buffer, fluorescence of annexin V and 7-AAD was detected in the FL-2 and FL-3 channels, respectively, within 1 h using a FACS Calibur flowcytometer (BD Biosciences, Sparks, MD, USA). […]

Substance	Effect on viability of MCF-7 cells [1]	Toxicity to HeLa cells [3]	Effect on survival of MCF-7 cells (MCF-7 cells [4])	Effect on survival of MDA-MB-231 cells (MDA-MB-231 cells)	pS2 mRNA levels (pS2 mRNA in MCF-7 cells)	also measured
NLS-RRRRRRR [R7, hepta-arginine cell-penetrating peptide with SV40 NLS, control, reference compound]	did not have any effect					Effect on viability of human primary fibroblasts ([2]; WST-1, 5 μM peptide, treated every 24 h, day 3, 1% FBS, triplicate): did not have any effect
NLS-RRRRRRR-PQMQQNVFQYPGAGMVPQGEANF [R7-SRC1_1222–1245, randomly chosen non-structured fragment of SRC-1 with N-terminal R7; negative control]		not toxic	did not affect survival	did not affect survival		
NLS-RRRRRRR-YSQTSHKLVQLLTTAEQQ [R7-SRC1LXXLL]		not toxic	did not affect survival	did not affect survival		
PKKKRKVAGYLLGKINLKALAALAKKILYSQTSHKLVQLLTTAEQQ [TP10-SRC1LXXLL]	significantly more toxic; also recorded: highly cytotoxic		significant cytotoxic effects		No down-regulation	Concentration affecting the viability of primary fibroblasts ([2]; WST-1, day 3): ≥ 4 µM; Cytotoxicity to HeLa cells ([3]; 5 μM): highly cytotoxic; Cells killed (MCF-7 cells [4]; MCF-7, 5 μM every 24 h, day 3, propidium iodide assay): 50%; Number of viable cells (MCF-7 cells [4]; MCF-7, 5 μM every 24 h, day 4, propidium iodide assay): less than 1%; Cells killed (MDA-MB-231 cells; MDA-MB-231, 5 μM every 24 h, day 3, propidium iodide assay): 99%; Number of viable cells (MDA-MB-231 cells; MDA-MB-231, 5 μM every 24 h, day 4, propidium iodide assay): less than 1%; CTSD mRNA expression (CTSD mRNA in MCF-7 cells): slightly elevated; BCL2 mRNA expression (BCL2 mRNA in MCF-7 cells): slightly elevated; Annexin V and 7-AAD double-stained (late apoptotic/necrotic) cells (MCF-7 cells [5]): smaller population of cells that stained for both 7-AAD and annexin V; Annexin V (+)/7-AAD (−) stained (early apoptotic) cells (MCF-7 cells [5]; compared with untreated cells): predominant population of annexin V positive and 7-AAD negative cells
TP10 [reference compound]	did not have any effect				No down-regulation	
